Test results taken from patent publication US20240207249A1, “COMPOSITIONS AND METHODS FOR TREATING, PREVENTING OR REVERSING AGE-ASSOCIATED INFLAMMATION AND DISORDER” (Brown University, priority 2019, published 2024).
“Also recorded” adds a separate entry of the source.

Test system: L1 retrotransposition
Assay: L1 retrotransposition dual-luciferase reporter cellular assay in HeLa-M2 cells
Format: cell-based, human
Conditions: not given

SMILES | effect on retrotransposition in the cellular reporter assay (in words)
C/C(C[C@H](c1ccccc1)c1c(O)c2ccccc2oc1=O)=N\Nc1ccc([N+](=O)[O-])cc1[N+](=O)[O-] [AD3] | best inhibition in the retrotransposition assay
COc1ccc([N+](=O)[O-])cc1NC(=O)c1ccc2c(c1)N(Cc1cc(C)ccc1C)C(=O)c1ccccc1S2(=O)=O [AD34] | did not significantly impact retrotransposition in cells
COc1ccc(OC)c(NS(=O)(=O)c2ccc(NS(=O)(=O)c3cccc([N+](=O)[O-])c3)cc2)c1 [AD36] | high activity in the retrotransposition assay
C[C@H]1C[C@H](C)CN(CCCNc2ccc(C(=O)Nc3ccc(C(F)(F)F)cc3)cc2[N+](=O)[O-])C1 [AD9] | high activity in the retrotransposition assay
O=C(O)[C@H](CCCCNc1ccc([N+](=O)[O-])cc1[N+](=O)[O-])Nc1ccc([N+](=O)[O-])cc1[N+](=O)[O-] [AD2] | did not significantly impact retrotransposition in cells
Cc1cc(=O)oc2c3c(ccc12)O/C(=N/Nc1ccc([N+](=O)[O-])cc1[N+](=O)[O-])C3=O [AD5] | did not significantly impact retrotransposition in cells
CCC1=C(C)CN(C(=O)NCCc2ccc(S(=O)(=O)NC(=O)N[C@H]3CC[C@H](C)CC3)cc2)C1=O [AD15, Glimepiride, reference compound] | reduced retrotransposition in the cellular reporter assay
O=C(NCCCCCCNC(=O)Nc1cccc([N+](=O)[O-])c1)Nc1cccc([N+](=O)[O-])c1 [AD32] | high activity in the retrotransposition assay
O=C(Nc1ccc(S(=O)(=O)NCc2ccco2)cc1)c1cc(NS(=O)(=O)c2cccs2)cc(NS(=O)(=O)c2cccs2)c1 [AD18] | did not significantly impact retrotransposition in cells
O=C(Cn1nc(-c2ccc(Br)cc2)ccc1=O)NC[C@H]1CC[C@H](C(=O)O)CC1 [AD43] | high activity in the retrotransposition assay
COc1ccc2c(c1)C(=O)N(CCc1ccc(S(=O)(=O)NC(=O)NC3CCCCC3)cc1)C(=O)C2(C)C [AD12, Gliquidone, reference compound] | reduced retrotransposition in the cellular reporter assay; also recorded: high activity in the retrotransposition assay; also recorded: best inhibition in the retrotransposition assay
C/C(=N/Nc1ccc([N+](=O)[O-])cc1[N+](=O)[O-])c1ccc(-n2nncc2C(C)(C)C)cc1 [AD7] | high activity in the retrotransposition assay

Same assay, conditions: 10 μM; Table 2

SMILES | Cellular assay: retrotransposition efficiency (mean ± SD)
Cc1cc([N+](=O)[O-])ccc1NC(=S)NC(=O)C(c1ccccc1)c1ccccc1 [AD6] | 10 μM: 79.1

Same assay, conditions: 50 μM; Table 2

SMILES | Cellular assay: retrotransposition efficiency (mean ± SD)
O=C(NC(NC(=O)c1ccccc1)c1cccc([N+](=O)[O-])c1)c1ccccc1 [AD10] | 50 μM: 68.9
CCC1=C(C)CN(C(=O)NCCc2ccc(S(=O)(=O)NC(=O)N[C@H]3CC[C@H](C)CC3)cc2)C1=O [AD15, Glimepiride, reference compound] | 50 μM: 17.1

Test system: HeLa cells
Assay: not given
Conditions: human

SMILES | Toxicity at concentration
Cc1ccc(NC(=O)CSc2nc(-c3ccccc3F)nc3c2Cc2c(CO)cnc(C)c2O3)cc1 [AD28] | Toxicity at 2.5 μM

Target: L1 EN (Homo sapiens (Human), UniProt O00370)
Assay: fluorescent oligonucleotide nicking assay
Format: biochemical
Conditions: not given

Chain of L1 EN (O00370 1-239): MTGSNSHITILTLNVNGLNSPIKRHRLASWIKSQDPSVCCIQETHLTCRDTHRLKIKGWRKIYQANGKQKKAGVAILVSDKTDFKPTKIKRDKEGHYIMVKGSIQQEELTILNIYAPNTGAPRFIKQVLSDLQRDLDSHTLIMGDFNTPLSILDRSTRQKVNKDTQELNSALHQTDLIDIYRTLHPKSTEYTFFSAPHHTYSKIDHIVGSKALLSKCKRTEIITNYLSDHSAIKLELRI

SMILES | in vitro activity against EN (in words)
O=C(O)[C@H](CCCCNc1ccc([N+](=O)[O-])cc1[N+](=O)[O-])Nc1ccc([N+](=O)[O-])cc1[N+](=O)[O-] [AD2] | clear activity in vitro
Cc1cc(=O)oc2c3c(ccc12)O/C(=N/Nc1ccc([N+](=O)[O-])cc1[N+](=O)[O-])C3=O [AD5] | clear activity in vitro
O=C(NCCCCCCNC(=O)Nc1cccc([N+](=O)[O-])c1)Nc1cccc([N+](=O)[O-])c1 [AD32] | relatively low efficacy in vitro
C/C(=N/Nc1ccc([N+](=O)[O-])cc1[N+](=O)[O-])c1ccc(-n2nncc2C(C)(C)C)cc1 [AD7] | relatively low efficacy in vitro

Same assay, conditions: in vitro assays with purified EN

in vitro activity against EN (in words) | SMILES
clear activity in vitro | COc1ccc([N+](=O)[O-])cc1NC(=O)c1ccc2c(c1)N(Cc1cc(C)ccc1C)C(=O)c1ccccc1S2(=O)=O [AD34]
relatively low efficacy in vitro | COc1ccc(OC)c(NS(=O)(=O)c2ccc(NS(=O)(=O)c3cccc([N+](=O)[O-])c3)cc2)c1 [AD36]
relatively low efficacy in vitro | C[C@H]1C[C@H](C)CN(CCCNc2ccc(C(=O)Nc3ccc(C(F)(F)F)cc3)cc2[N+](=O)[O-])C1 [AD9]
clear activity in vitro | O=C(Nc1ccc(S(=O)(=O)NCc2ccco2)cc1)c1cc(NS(=O)(=O)c2cccs2)cc(NS(=O)(=O)c2cccs2)c1 [AD18]
relatively low efficacy in vitro | O=C(Cn1nc(-c2ccc(Br)cc2)ccc1=O)NC[C@H]1CC[C@H](C(=O)O)CC1 [AD43]

Test system: full-length L1 (ORF1 and ORF2) in HeLa Tet-On cells
Assay: L1-induced DNA damage, γ-H2AX immunofluorescence, full-length L1 expression
Format: cell-based, human
Conditions: not given

SMILES | inhibition of L1-induced DNA damage (in words)
C/C(C[C@H](c1ccccc1)c1c(O)c2ccccc2oc1=O)=N\Nc1ccc([N+](=O)[O-])cc1[N+](=O)[O-] [AD3] | best inhibition
COc1ccc2c(c1)C(=O)N(CCc1ccc(S(=O)(=O)NC(=O)NC3CCCCC3)cc1)C(=O)C2(C)C [AD12, Gliquidone, reference compound] | best inhibition

Target: APE-1 (Homo sapiens (Human), UniProt P27695)
Assay: not given
Conditions: cited from earlier work

Chain of APE-1 (P27695 whole entry): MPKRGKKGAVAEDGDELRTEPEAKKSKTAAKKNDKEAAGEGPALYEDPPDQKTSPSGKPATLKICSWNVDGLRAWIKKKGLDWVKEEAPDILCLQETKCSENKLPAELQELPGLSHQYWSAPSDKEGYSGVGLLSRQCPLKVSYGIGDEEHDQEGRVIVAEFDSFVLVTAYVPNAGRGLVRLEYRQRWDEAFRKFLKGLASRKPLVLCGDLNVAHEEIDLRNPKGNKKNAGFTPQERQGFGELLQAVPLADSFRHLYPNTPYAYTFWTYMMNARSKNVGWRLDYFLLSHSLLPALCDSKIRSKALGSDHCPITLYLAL

SMILES | Ki
O=C(O)[C@H](CCCCNc1ccc([N+](=O)[O-])cc1[N+](=O)[O-])Nc1ccc([N+](=O)[O-])cc1[N+](=O)[O-] [AD2] | 13 µM
CCn1c2ccccc2c2cc(/C=N\Nc3cc(C)nc4cc5c(cc34)OCO5)ccc21 [AD1, reference compound] | 0.12 µM

Target: human L1 EN domain (1-239) (Homo sapiens (Human), UniProt O00370)
Assay: plasmid nicking L1 EN activity biochemical assay
Conditions: not given

Chain of human L1 EN domain (1-239) (O00370 1-239): as the sequence (O00370 1-239) above

L1 EN inhibition in the biochemical assay (in words) | SMILES | Biochemical assay: concentration at maximum inhibition | Biochemical assay: maximum inhibition
effective in the biochemical assay | Nn1cnn2c(SCC(=O)Cc3ccc(-c4nc5cc(NC(=O)CSc6nnc7n(N)cnn67)ccc5o4)cc3)nnc12 [AD16] | – | –
effective in the biochemical assay | O=C(Nc1ccc(S(=O)(=O)NCc2ccco2)cc1)c1cc(NS(=O)(=O)c2cccs2)cc(NS(=O)(=O)c2cccs2)c1 [AD18] | – | –
effective in the biochemical assay | COc1ccccc1NC(=O)Nc1nc(Nc2ccc(S(=O)(=O)Nc3nc(C)cc(C)n3)cc2)nc(Oc2cccc(O)c2)n1 [AD19] | – | –

The remaining lines, values behind:

SMILES | L1 EN inhibition in the biochemical assay (in words) | Biochemical assay: concentration at maximum inhibition | Biochemical assay: maximum inhibition
C/C(C[C@H](c1ccccc1)c1c(O)c2ccccc2oc1=O)=N\Nc1ccc([N+](=O)[O-])cc1[N+](=O)[O-] [AD3] | – | 250 μM FIG. 2C | 100% inhibition at
O=C1c2ccc(Oc3ccc4c(c3)C(=O)N(Nc3ccc([N+](=O)[O-])cc3[N+](=O)[O-])C4=O)cc2C(=O)N1Nc1ccc([N+](=O)[O-])cc1[N+](=O)[O-] [AD13] | effective in the biochemical assay | 500 μM FIG. 2L | 100% inhibition at
O=C(O)[C@H](CCCCNc1ccc([N+](=O)[O-])cc1[N+](=O)[O-])Nc1ccc([N+](=O)[O-])cc1[N+](=O)[O-] [AD2] | effective against the L1 EN | 1 mM FIG. 2B | 100% inhibition at
O=[N+]([O-])c1ccc(Nc2ccc(Nc3ccccc3)c(S(=O)(=O)O)c2)c([N+](=O)[O-])c1 [AD4] | – | 1 mM FIG. 2D | 100% inhibition at
Cc1cc(=O)oc2c3c(ccc12)O/C(=N/Nc1ccc([N+](=O)[O-])cc1[N+](=O)[O-])C3=O [AD5] | – | 50 μM FIG. 2E | 100% inhibition
CCC1=C(C)CN(C(=O)NCCc2ccc(S(=O)(=O)NC(=O)N[C@H]3CC[C@H](C)CC3)cc2)C1=O [AD15, Glimepiride, reference compound] | inhibited L1 EN activity in the biochemical assay | – | –
C[C@@H](Nc1ccc([N+](=O)[O-])cc1[N+](=O)[O-])C(=O)O [AD8] | – | 15 mM FIG. 2G | 100% inhibition at
O=C(CCCCCCCCCCC(=O)Nc1cccc([N+](=O)[O-])c1)Nc1cccc([N+](=O)[O-])c1 [AD11] | – | 10.0 μM FIG. 2J | 100% inhibition at
CCn1c2ccccc2c2cc(/C=N\Nc3cc(C)nc4cc5c(cc34)OCO5)ccc21 [AD1, reference compound] | did not inhibit the L1 EN | – | –
C/C(=N/Nc1ccc([N+](=O)[O-])cc1[N+](=O)[O-])c1ccc(-n2nncc2C(C)(C)C)cc1 [AD7] | – | 500 μM FIG. 2F | 80% inhibition at

Same assay, conditions: plasmid nicking assay

Biochemical assay: concentration at maximum inhibition | Biochemical assay: maximum inhibition | SMILES
100 μM FIG. 21 | 100% inhibition at | O=C(NC(NC(=O)c1ccccc1)c1cccc([N+](=O)[O-])c1)c1ccccc1 [AD10]
2.5 mM FIG. 2N | 100% inhibition at | CCC1=C(C)CN(C(=O)NCCc2ccc(S(=O)(=O)NC(=O)N[C@H]3CC[C@H](C)CC3)cc2)C1=O [AD15, Glimepiride, reference compound]
500 μM FIG. 20 | 50% inhibition at | Nn1cnn2c(SCC(=O)Cc3ccc(-c4nc5cc(NC(=O)CSc6nnc7n(N)cnn67)ccc5o4)cc3)nnc12 [AD16]
750 μM FIG. 2Q | 50% inhibition at | O=C(Nc1ccc(S(=O)(=O)NCc2ccco2)cc1)c1cc(NS(=O)(=O)c2cccs2)cc(NS(=O)(=O)c2cccs2)c1 [AD18]
250 μM FIG. 2R | 75% inhibition at | COc1ccccc1NC(=O)Nc1nc(Nc2ccc(S(=O)(=O)Nc3nc(C)cc(C)n3)cc2)nc(Oc2cccc(O)c2)n1 [AD19]

Continued, molecule first:

SMILES | Biochemical assay: concentration at maximum inhibition | Biochemical assay: maximum inhibition
C[C@H]1C[C@H](C)CN(CCCNc2ccc(C(=O)Nc3ccc(C(F)(F)F)cc3)cc2[N+](=O)[O-])C1 [AD9] | 750 μM FIG. 2H | 80% inhibition at
Cc1cc([N+](=O)[O-])ccc1NC(=S)NC(=O)C(c1ccccc1)c1ccccc1 [AD6] | 750 μM FIG. 2F | 90% inhibition at
CCn1c2ccccc2c2cc(/C=N\Nc3cc(C)nc4cc5c(cc34)OCO5)ccc21 [AD1, reference compound] | – | No inhibition

Test system: senescent human diploid fibroblasts (LF1)
Assay: RNA-seq transcriptomic analysis of senescent cells
Format: cell-based
Conditions: IFN gene set and aging gene set

SMILES | gene set expression by RNA-seq (in words)
COc1ccc2c(c1)C(=O)N(CCc1ccc(S(=O)(=O)NC(=O)NC3CCCCC3)cc1)C(=O)C2(C)C [AD12, Gliquidone, reference compound] | decreased expression

Test system: not listed separately
Assay: solubility remark in cellular assay column
Conditions: reason for no cellular data

SMILES | solubility (in words)
Cc1cc(=O)oc2c3c(ccc12)O/C(=N/Nc1ccc([N+](=O)[O-])cc1[N+](=O)[O-])C3=O [AD5] | (poor solubility)

Test system: senescent human diploid fibroblasts (LF1)
Assay: RT-qPCR of inflammatory markers in replicative senescent cells
Format: cell-based
Conditions: not given

SMILES | effect on inflammatory markers in senescent cells (in words)
C/C(C[C@H](c1ccccc1)c1c(O)c2ccccc2oc1=O)=N\Nc1ccc([N+](=O)[O-])cc1[N+](=O)[O-] [AD3] | show efficacy

Same assay, conditions: 1 month treatment

SMILES | effect on inflammatory markers in senescent cells (in words)
COc1ccc2c(c1)C(=O)N(CCc1ccc(S(=O)(=O)NC(=O)NC3CCCCC3)cc1)C(=O)C2(C)C [AD12, Gliquidone, reference compound] | show efficacy

Test system: L1 EN domain in HeLa Tet-On cells
Assay: L1-induced DNA damage, γ-H2AX immunofluorescence and neutral comet assay, EN domain-only expression
Format: cell-based, human
Conditions: not given

SMILES | inhibition of L1-induced DNA damage (in words)
O=C(CCCCCCCCCCC(=O)Nc1cccc([N+](=O)[O-])c1)Nc1cccc([N+](=O)[O-])c1 [AD11] | better efficacy

Same assay, conditions: EN domain-only

SMILES | inhibition of L1-induced DNA damage (in words)
Nn1cnn2c(SCC(=O)Cc3ccc(-c4nc5cc(NC(=O)CSc6nnc7n(N)cnn67)ccc5o4)cc3)nnc12 [AD16] | better efficacy
